Laboratory results as given in patent publication US10035790B2, “RORγ modulators” (BRISTOL-MYERS SQUIBB COMPANY, priority 2012, dated 2018).

biological target: T1, ligand binding domain of human RORγ (A262-S507) (Homo sapiens, UniProt P51449); experiment: General RORγ SPA binding assay (competition with [3H]25-hydroxycholesterol); details: IC50, RORγ SPA binding assay, inhibition of [3H]25-hydroxycholesterol binding
T1 construct: made in house; host or cells: E. coli
T1 sequence (P51449 262-507): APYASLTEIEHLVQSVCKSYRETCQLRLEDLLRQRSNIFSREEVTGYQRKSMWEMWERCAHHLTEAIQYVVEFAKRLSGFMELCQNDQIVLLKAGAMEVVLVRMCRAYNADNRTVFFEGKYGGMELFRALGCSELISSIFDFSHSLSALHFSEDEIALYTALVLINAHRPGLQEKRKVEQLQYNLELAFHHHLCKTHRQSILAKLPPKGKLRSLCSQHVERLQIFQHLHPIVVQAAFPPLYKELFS
Summary of the method: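 Scintillation counts from copper His-tag SPA beads (4 mg/mL, 30 min) gave percent inhibition of radioligand binding, from which IC50 values are derived. The E. coli-expressed His-tagged domain (50 nM) is first exposed to compound for 15 min at room temperature in PBS containing 0.5% fatty acid free BSA.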

SMILES	IC50 [nM]
Nc1ncc(C(=O)COc2ccnc(C(F)(F)F)n2)c(C2CCN(C(=O)Oc3c(F)cccc3F)CC2)n1 [Compound M3, 2,6-Difluorophenyl 4-[2-amino-5-({[2-(trifluoromethyl)pyrimidin-4-yl]oxy}acetyl)pyrimidin-4-yl]piperidine-1-carboxylate]	19.1

same assay, conditions: RORγ SPA binding assay, inhibition of [3H]25-hydroxycholesterol binding; read-out: IC50

SMILES	IC50 [nM]
Cc1cc(C)cc(C/C=C\c2cnc(C)nc2C2CCN(C(=O)Cc3c(F)cccc3F)CC2)c1 [Compound J2, (Z)-2-(2,6-Difluorophenyl)-1-(4-(5-(3-(3,5-dimethylphenyl)prop-1-enyl)-2-methylpyrimidin-4-yl)piperidin-1-yl)ethanone]	28
Cc1cc(C)cc(CCCc2cnc(C)nc2C2CCN(C(=O)Cc3c(F)cccc3F)CC2)c1 [Compound J3, 2-(2,6-Difluorophenyl)-1-(4-(5-(3-(3,5-dimethylphenyl)propyl)-2-methylpyrimidin-4-yl)piperidin-1-yl)ethanone]	7.7
Cc1cc(C)cc(C(=O)NCc2cnc(C)nc2C2CCN(C(=O)Cc3c(F)cccc3F)CC2)c1 [Compound K1, N-((4-(1-(2-(2,6-Difluorophenyl)acetyl)piperidin-4-yl)-2-methylpyrimidin-5-yl)methyl)-3,5-dimethylbenzamide]	4110
O=C(Cc1c(F)cccc1F)N1CCC(c2ncncc2C(=S)NCc2ccc(Cl)c(Cl)c2)CC1 [Compound L1, N-(3,4-Dichlorobenzyl)-4-(1-(2-(2,6-difluorophenyl)acetyl)piperidin-4-yl)pyrimidine-5-carbothioamide]	81
Cc1ncc(C(=O)COc2cccc(Cl)c2)c(C2CCN(C(=O)Cc3c(F)cccc3F)CC2)n1 [Compound M1, 2-(3-Chlorophenoxy)-1-(4-(1-(2-(2,6-difluorophenyl)acetyl)piperidin-4-yl)-2-methylpyrimidin-5-yl)ethanone]	26
CSc1ncc(C(=O)COc2ccnc(C(F)(F)F)n2)c(C2CCN(C(=O)Nc3c(F)cccc3F)CC2)n1 [Compound M2, N-(2,6-Difluorophenyl)-4-[2-(methylthio)-5-({[2-(trifluoromethyl)pyrimidin-4-yl]oxy}acetyl)pyrimidin-4-yl]piperidine-1-carboxamide]	18.6
Cc1ncc(C(=O)COc2cccc(C(F)(F)F)n2)c(C2CCN(C(=O)Nc3c(F)cccc3F)CC2)n1 [Compound M4, N-(2,6-Difluorophenyl)-4-[2-methyl-5-({[6-(trifluoromethyl)pyridin-2-yl]oxy}acetyl)pyrimidin-4-yl]piperidine-1-carboxamide]	6.5
Nc1ncc(C(=O)COc2ccnc(C(F)(F)F)n2)c(C2CCN(C(=O)Nc3c(F)cccc3F)CC2)n1 [Compound M6, 4-[2-Amino-5-({[2-(trifluoromethyl)pyrimidin-4-yl]oxy}acetyl)pyrimidin-4-yl]-N-(2,6-difluorophenyl)piperidine-1-carboxamide]	12.2
O=C(COc1ccnc(C(F)(F)F)n1)c1cnc(NCCF)nc1C1CCN(C(=O)Nc2c(F)cccc2F)CC1 [Compound M7, N-(2,6-Difluorophenyl)-4-{2-[(2-fluoroethyl)amino]-5-({[2-(trifluoromethyl)pyrimidin-4-yl]oxy}acetyl)pyrimidin-4-yl}piperidine-1-carboxamide]	159
Cc1nc(C)c(C(=O)COc2ccnc(C(F)(F)F)n2)c(C2CCN(C(=O)Nc3c(F)cccc3F)CC2)n1 [Compound M8, N-(2,6-Difluorophenyl)-4-[2,6-dimethyl-5-({[2-(trifluoromethyl)pyrimidin-4-yl]oxy}acetyl)pyrimidin-4-yl]piperidine-1-carboxamide]	1.7
Cc1nc(C)c(C(O)COc2ccnc(C(F)(F)F)n2)c(C2CCN(C(=O)Nc3c(F)cccc3F)CC2)n1 (stereo not drawn) [Compound M9, N-(2,6-Difluorophenyl)-4-[5-(1-hydroxy-2-{[2-(trifluoromethyl)pyrimidin-4-yl]oxy}ethyl)-2,6-dimethylpyrimidin-4-yl]piperidine-1-carboxamide]	2
Cc1nc(N)nc(C2CCN(C(=O)Nc3c(F)cccc3F)CC2)c1C(=O)COc1ccnc(C(F)(F)F)n1 [Compound M10, 4-[2-Amino-6-methyl-5-({[2-(trifluoromethyl)pyrimidin-4-yl]oxy}acetyl)pyrimidin-4-yl]-N-(2,6-difluorophenyl)piperidine-1-carboxamide]	5.3

Results, then the compound that gave them:

IC50 [nM]	SMILES
71	Cc1nc(NCc2ccnc(C(F)(F)F)c2)c(C(=O)NCc2ccnc(C(F)(F)F)c2)c(C2CCN(C(=O)Cc3c(F)cccc3F)CC2)n1 [Compound I2, 4-{1-[(2,6-Difluorophenyl)acetyl]piperidin-4-yl}-2-methyl-N-{[2-(trifluoromethyl)pyridin-4-yl]methyl}-6-({[2-(trifluoromethyl)pyridin-4-yl]methyl}amino)pyrimidine-5-carboxamide]
10.7	Cc1cc(C)cc(CNC(=O)c2c(C3CCN(C(=O)Cc4c(F)cccc4F)CC3)nc(C)[nH]c2=O)c1 [Compound I3, 4-(1-(2-(2,6-Difluorophenyl)acetyl)piperidin-4-yl)-N-(3,5-dimethylbenzyl)-2-methyl-6-oxo-1,6-dihydropyrimidine-5-carboxamide]
10.9	Cc1nc(C2CCN(C(=O)Cc3c(F)cccc3F)CC2)c(C(=O)NCc2cccc(Cl)c2)c(=O)[nH]1 [Compound I4, N-(3-chlorobenzyl)-4-(1-(2-(2,6-difluorophenyl)acetyl)piperidin-4-yl)-2-methyl-6-oxo-1,6-dihydropyrimidine-5-carboxamide]
69.3	Cc1nc(C2CCN(C(=O)Cc3c(F)cccc3F)CC2)c(C(=O)NCc2ccnc(C(F)(F)F)c2)c(=O)[nH]1 [Compound I5, 4-(1-(2-(2,6-difluorophenyl)acetyl)piperidin-4-yl)-2-methyl-6-oxo-N-((2-(trifluoromethyl)pyridin-4-yl)methyl)-1,6-dihydropyrimidine-5-carboxamide]
60.9	Cc1nc(C2CCN(C(=O)Cc3c(F)cccc3F)CC2)c(/C=N/Oc2cccc(C(F)(F)F)c2)c(=O)[nH]1 [Compound I6, (E)-4-(1-(2-(2,6-Difluorophenyl)acetyl)piperidin-4-yl)-2-methyl-6-oxo-1,6-dihydropyrimidine-5-carbaldehyde O-3-(trifluoromethyl)phenyl oxime]
654	Cc1nc(C2CCN(C(=O)Cc3c(F)cccc3F)CC2)c(C(=O)NCc2cccc(C(F)(F)F)n2)c(=O)n1C [Compound I7, 4-(1-(2-(2,6-Difluorophenyl)acetyl)piperidin-4-yl)-1,2-dimethyl-6-oxo-N-((6-(trifluoromethyl)pyridin-2-yl)methyl)-1,6-dihydropyrimidine-5-carboxamide]
2290	CCn1c(C)nc(C2CCN(C(=O)Cc3c(F)cccc3F)CC2)c(C(=O)NCc2cccc(C(F)(F)F)n2)c1=O [Compound I8, 4-(1-(2-(2,6-Difluorophenyl)acetyl)piperidin-4-yl)-1-ethyl-2-methyl-6-oxo-N-((6-(trifluoromethyl)pyridin-2-yl)methyl)-1,6-dihydropyrimidine-5-carboxamide]
16.3	Nc1ncc(C(=O)COc2ccnc(C(F)(F)F)n2)c(C2CCN(C(=O)Cc3c(F)cccc3F)CC2)n1 [Compound M5, 1-(2-Amino-4-{1-[(2,6-difluorophenyl)acetyl]piperidin-4-yl}pyrimidin-5-yl)-2-{[2-(trifluoromethyl)pyrimidin-4-yl]oxy}ethanone]
